According to publication doi:10.1101/2020.08.16.252940v1 (biorxiv, 2020):

Experiments:
[1] = target: VDR-LBD (Homo sapiens, UniProt P11473); test: biochemical
[2] = target: VDR (Homo sapiens, UniProt P11473); settings: antagonist mode; agonist and cell line not told
Chain of VDR (P11473 whole entry): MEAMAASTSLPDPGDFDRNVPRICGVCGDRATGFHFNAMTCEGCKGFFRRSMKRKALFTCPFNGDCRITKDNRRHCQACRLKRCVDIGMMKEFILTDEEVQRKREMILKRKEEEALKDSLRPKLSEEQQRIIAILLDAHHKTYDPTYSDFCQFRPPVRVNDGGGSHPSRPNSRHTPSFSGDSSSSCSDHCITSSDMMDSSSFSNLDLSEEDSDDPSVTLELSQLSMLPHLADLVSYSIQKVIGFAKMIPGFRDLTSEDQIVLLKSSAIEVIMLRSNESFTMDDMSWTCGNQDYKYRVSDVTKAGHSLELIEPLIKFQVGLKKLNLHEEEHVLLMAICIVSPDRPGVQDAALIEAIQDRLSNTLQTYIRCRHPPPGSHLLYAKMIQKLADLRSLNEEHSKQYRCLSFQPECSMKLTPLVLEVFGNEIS

Chain of VDR-LBD (P11473 118-427 limits assumed): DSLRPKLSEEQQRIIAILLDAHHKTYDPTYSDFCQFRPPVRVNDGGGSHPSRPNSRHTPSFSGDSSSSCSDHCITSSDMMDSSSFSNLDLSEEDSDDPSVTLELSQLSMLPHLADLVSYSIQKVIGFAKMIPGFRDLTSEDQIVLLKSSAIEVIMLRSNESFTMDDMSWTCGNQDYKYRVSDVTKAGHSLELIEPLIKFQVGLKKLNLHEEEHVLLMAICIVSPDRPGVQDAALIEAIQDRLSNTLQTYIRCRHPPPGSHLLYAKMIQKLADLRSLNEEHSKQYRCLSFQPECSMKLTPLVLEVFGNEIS

| SMILES | IC50 [1] | inhibition only at concentrations above [2] |
| --- | --- | --- |
| CC(C)CCC[C@@H](C)[C@H]1CC[C@@H]2[C@]1(C)CC[C@H]1[C@]23C=C[C@]2(C[C@@H](OC(=O)CBr)CC[C@]12C)n1c(=O)n(C)c(=O)n13 [MeTC7] | 1860 nM | – |
| CC(C)CCC[C@@H](C)[C@H]1CC[C@H]2C3=CC=C4C[C@@H](O)CC[C@]4(C)[C@H]3CC[C@]12C [7-dehydrocholesterol] | – | > 100 µM |
